Consider three compounds from patent US6759430B2, “Piperidine and pyrrolidine derivatives comprising a nitric oxide donor for treating stress” (OxoN Medica Inc., priority 1998, dated 2004).

Assay [1] relates to rat aortic rings (RARs). Briefly: in vitro induction of tolerance in rat aortic rings. Format: cell-based. The settings on record: for tolerance induction in vitro: RARs pre-exposed to 0.44 mM of the drug for 1 hr; for vaso-relaxant effect on rings before and after exposure to GTN: rings exposed to 0.44 mM GTN for 1 hr, FIGS. 4 and 5; for vaso-relaxant potency, control versus NO-TEMPO-pre-treated RARs: rings exposed to 0.44 mM NO-TEMPO, FIGS. 7 and 8. The procedure: (§1) Materials: Male Sprague-Dawley rats (250-300 g) were purchased from the Animal Care Facility of the Hebrew University and used in the rat aortic rings (RARs) relaxation studies in vitro and the blood pressure monitoring and cGMP studies in vivo.
In vitro induction of GTN tolerance: Aortic rings were treated as for the control studies except that rings were exposed to 0.44 mM GTN for 1 hr. At the end of the tolerance induction period, rings were washed every 15 min for the following hour. Attempted induction of tolerance to NO-TEMPO was performed under the same conditions as for GTN with rings exposed to 0.44 mM solution of NO-TEMPO. CCRC were constructed for NO-TEMPO and GTN. […] This conclusion is further supported by separately evaluating the vaso-relaxant effect of each drug on control and NO-TEMPO-pre-treated RARs.

Assay [2] can be described thus: superoxide scavenging activity in vitro (photometric microassay, xanthine oxidase/hypoxanthine, ferricytochrome c reduction). The settings on record: inhibition of ferricytochrome c reduction; 0.003-3 mM tested; n=5. Format: biochemical. How it is done:
Assessment of superoxide scavenging activity in vitro
The superoxide scavenging activity of TEMPO-4-mononitrate (0.003-3 mM) and reference compound superoxide dismutase (SOD, 200 U/ml), were determined using a photometric microassay in vitro (Laight et al., Environ. J. Toxicol. Pharmracol., 3, 65-68, 1997) developed from the assay of McCord & Fridovich (J. Biol. Chem., 244, 6059-55, 1969). The assay mixture consisted of (final concentration): 50 μl ferricytochrome c (100 μM); 10 μl xanthine oxidase (20 mU/ml); 20 μl hypoxanthine (100 μM); and 20 μl sample dissolved in isotonic phosphate (10 mM)-buffered saline (PBS, pH 7.4) to make a total volume of 100 μl in a 96-well plate. The reaction was conducted at room temperature and initiated by the addition of hypoxanthine. The increase in optical density (OD) at […] was measured over a 3 min period of 30 s intervals and initial reaction rates determined at least in triplicate.
There was a linear relationship between the initial reaction rate and the concentration of xanthine oxidase (5-20 mU/ml) (r=0.9982, P<0.002, n=4). […] Xanthine oxidase at 20 mU/rml, which provided an initial reaction rate of 28.3±1.7 mOD/min (n=4), was adopted for subsequent inhibition studies (see McCord & Fridovich, 1969). The initial reaction rate was depressed by SOD (200 U/ml) by 95.3±1.1% (n=4, P<0.01) and by TEMPO-4-mononitrate (see FIG. 1).

Assay [3] in a line: in vivo induction of tolerance, subcutaneous dosing. Also noted: species or system rat. The settings on record: subcutaneously 30 mg/kg t.i.d for three consecutive days.
In assay [4] the test system is rat aortic rings (RARs). The experiment in a line: in vitro vasorelaxation of epinephrine-contracted rat aortic rings. The assay is classed as cell-based. The settings on record: control RARs contracted with epinephrine 1 μM; FIGS. 2 and 3. The procedure: as §1
In vitro vasorelaxation: Thoracic aortae were removed following anesthesia with intraperitoneal injection of ketamine and xylazine (50 and 10 mg/kg, respectively). The paraadventetial tissue surrounding the vessel was carefully removed. Aortae were cut into rings of 4-5 mm and mounted onto the tissue path. The path buffer (Krebs-bicarbonate) was constantly gassed with carbogen and maintained at 37° C. The rings were preloaded under 2 g tension and equilibrated for 90 min with buffer changed every 15 min. After stabilization, the rings were contracted with epinephrine (1 μM). Commulative Concentration-Response Curves (CCRC) were constructed for NO-TEMPO, glyceryl trinitrate (GTN) and S-nitroso-N-acetylpenicillamine (SNAP). FIGS. 2 and 3 represent the vaso-relaxant effect of NO-TEMPO as compared to the conventional NO-donors GTN and SNAP.

For assay [5], the system named is cGMP content in aortic tissue. The experiment in a line: vascular cGMP content after in vivo administration (RIA). Also noted: species or system rat. The settings on record: for effect on vascular cGMP compared to GTN: intravenously in equimolar doses. How it is done:
as §1
Experiments were performed in anaesthetized rats as above. Following i.v. administration of NO-TEMPO (0.1, 0.2, 0.5 mg etc.,) the thorax was opened and the aorta removed immediately (within thirty seconds from the administration). After standard processing procedures, cGMP content in the vascular tissue was measured by Radioimmunoassay (RIA) using commercially available kits (i.e., Kit 500 TRK from Amersham).

A short description of assay [6]: in vivo blood pressure (mean arterial pressure) monitoring in anesthetized rats. Also noted: species or system rat. How it is done: as §1
In the in vivo experiment, rats were anesthetized with an intraperitoneal injection of a combination of ketamine and xylazine (50 and 10 mg per kg, respectively). A catheter was placed in the right external jugular vein and introduced to the level of right atrium. A second arterial catheter was placed in the left carotid artery and introduced to the level of the ascending aorta. The tip of arterial catheter was connected to a pressure transducer which is connected to another electrical transducer connected to a computerized Experimetria system. Blood-pressure (mean arterial pressure=MAP) was recorded before (basal) and after drug administration. NO-TEMPO was injected through the venous catheter and induced a significant drop in MAP which lasts for 5 to 10 minutes. Values for basal MAP were 130±15 before and 60±10 mm Hg following a 1 mg injection of NO-TEMPO.

Turning to `CC1(C)CC(O[N+](=O)[O-])CC(C)(C)N1[O]` [TEMPO-4-mononitrate, 4-Nitrato-2,2,6,6-tetramethylpiperidinyloxy, free radical], in assay [1], the “tolerance induction in vitro” value is “does not induce tolerance neither to itself nor to GTN”; the “vaso-relaxant effect on rings before and after exposure to GTN” value is recorded as “significant difference”; the “vaso-relaxant potency, control versus NO-TEMPO-pre-treated RARs” value is “no significant difference”. In assay [2], this compound had a pIC50 value of 2.89±0.03. Further, the “tolerance induction in vivo” value in assay [3] is listed as “does not induce tolerance either to itself or to GTN”. The “vaso-relaxant effect compared to conventional NO-donors GTN and SNAP” value in assay [4] is “superiority of NO-TEMPO to both of these NO-donors”. The “increase in vascular cGMP” value in assay [5] (1 mg i.v. versus basal) was 4-5 fold. Further, the “cGMP content in aortic tissue” value in assay [5] (1 mg i.v., aorta removed within thirty seconds, basal 46±10) worked out at 197±18 pmole/g tissue. Further, in assay [5] (NO-TEMPO pre-treated rats), the “tolerance of the vascular cGMP effect” value is “lack of tolerance induction”. Besides, in assay [5] (control rats), the “effect on cGMP content of vascular tissue” value is reported as “significant increase” and the “effect on vascular cGMP compared to GTN” value was “compared well with that of GTN”. Besides, the “effect on vascular cGMP compared to GTN” value in assay [5] (control rats, listed as NO-TEMPO) is reported as “superior activity as compared to GTN”. Moreover, in assay [6] (1 mg injection through venous catheter, basal MAP 130±15), the “mean arterial pressure (MAP) following injection” value was determined as 60±10 mm Hg. In assay [6] (rat, in vivo), the “hypotensive effects in vivo compared to GTN and SNAP” value was “superiority of this drug to both GTN and SNAP”. In addition, the “tolerance of the hypotensive effect on MAP following successive administration” value (“tolerance of the hypotensive effect” below) in assay [6] is “lack of tolerance development”.
For `O=[N+]([O-])OCC(CO[N+](=O)[O-])O[N+](=O)[O-]` [GTN, glyceryl trinitrate, reference compound], in assay [1], the “tolerance induction in vitro” value is “induces tolerance both to itself and to NO-TEMPO”; the “vaso-relaxant effect on rings before and after exposure to GTN” value was “development of GTN tolerance”; the “vaso-relaxant potency, control versus NO-TEMPO-pre-treated RARs” value was “no significant difference”. For the same compound, in assay [3], the “tolerance induction in vivo” value is “does induce tolerance to itself and to NO-TEMPO”. For the same compound, in assay [6], the “tolerance of the hypotensive effect” value is recorded as “attenuation to their effect on MAP develops”.
As for `CC(=O)N[C@H](C(=O)O)C(C)(C)SN=O` (racemic) [SNAP, S-nitroso-N-acetylpenicillamine, reference compound], the “tolerance of the hypotensive effect” value in assay [6] was “attenuation to their effect on MAP develops”.
